Source: patent US5945125A, “Controlled release tablet” (Temple University, priority 1996, dated 1999)
Converted amounts (≈) assume the structure as drawn. “Also recorded” adds a separate entry of the source. Structures can show the parent of a compound that is named as a salt. Where two headings read alike, the source gives them in different places.

Legend:
[1] = In vitro release of drugs from tablets (USP basket procedure, water, 100 rpm, 37° C.); format: physicochemical; settings: for constancy of release: PEO tablets of MW 0.9×10^6, 2×10^6, 4×10^6 (FIGS. 9-14); for effect of drug loading on release: PEO tablets, different drug loadings
Protocol: A set of tablet punches with flat surfaces were used to prepare tablets of various diameters, including 7 mm, 8.1 mm, 9.5 mm, and 11 mm. They were charged with the formulation, and the compression of 2000 to 4000 pounds was exerted by turning over the machine by hand.
In vitro release of drugs from the different formulation tablets was carried out by using the USP basket procedure in distilled/deionized water at a stirring rate of 100 rpm and 37° C., if not otherwise stated. Theophylline and diltiazem HCl were chosen as model drugs. The release of theophylline and diltiazem HCl was assayed by a HP.backslash.8252A (Hewlett Packard Corporation) diode-array spectrophotometer at 244 nm and 266 nm, respectively. The release kinetic data (up to 60% release) were treated by equation (1) above.
According to the criteria for release kinetics from a swellable matrix (cylindrical shape), zero-order and anomalous transport kinetics are represented by 0.89 <n<1.0 and 0.45<n<0.89, respectively. A linear regression analysis (Microsoft Excel 5.0) of the logarithmic form of equation (1) was carried out with R^2 ≥0.99.
(§1) A set of tablet punches with flat surfaces were used to prepare the tablets having diameters of 11.1 mm and weights of 550 mg except for the sulfathiazole tablets which were 9.5 mm in diameter and weighed 400 mg. All the tablets were compressed to 4000 pounds.
as §1, with “Similarly, FIGS. 10, 12 and 14 show particular drugs used for testing with their typical solubilities. A” for “A”, “The” for “All the”
A set of tablet punches with flat surfaces were used to prepare the tablets having diameters of 11.1 mm and weights of 550 mg except for the sulfathiazole tablets, which were 9.5 mm in diameter and weighed 400 mg. All the tablets were compressed to 4000 pounds per square inch.

[2] = cited from earlier work
[3] = PEO MW 4×10^6, 20% drug loading
[4] = PEO MW 4×10^6, 39% drug loading

O=C(O)Cc1ccccc1Nc1c(Cl)cccc1Cl [diclofenac sodium]
n (release kinetics exponent) ([1]; PEO MW 0.9×10^6, 20% drug loading (FIG. 31)): 0.93
effect of lactose on release kinetics ([1]; PEO MW 4×10^6, 39% drug vs 20% drug and 19% lactose, same total weight (FIG. 6)): superimposable (except for the final stage of release); also recorded: superimposable (except in the final stage of release)
constancy of release [1]: least constant release; also recorded: constant or near constant release kinetics
effect of drug loading on release [1]: did not significantly change

COc1ccc([C@@H]2Sc3ccccc3N(CCN(C)C)C(=O)[C@@H]2OC(C)=O)cc1 [diltiazem HCl, diltiazem hydrochloride]
solubility ([2]; in water): > 50%

O=C(O)c1ccccc1O [salicylic acid]
release at which profiles from 20% and 39% loaded tablets cross ([1]; PEO MW 2×10^6 (FIG. 31)): about 50%
release kinetics exponent n [1, 3]: 0.72
release kinetics exponent n [1, 4]: 0.81
constancy of release [1]: Constant release rates over the longest period of time

Nc1ccc(S(=O)(=O)Nc2ncccn2)cc1 [sulfadiazine]
constancy of release [1]: most constant release over the longest period of time

Nc1ccc(S(=O)(=O)Nc2ccccn2)cc1 [sulfapyridine]
period of release ([1]; PEO MW 4×10^6 (FIG. 14)): relatively short
release kinetics exponent n ([1]; PEO MW 4×10^6 (FIG. 14)): 1.10
effect of 39% versus 20% drug loading on release profile ([1]; PEO tablets (FIG. 31)): shifted to the left of the release profiles from 20% loaded tablets

Nc1ccc(S(=O)(=O)Nc2nccs2)cc1 [sulfathiazole]
release at which profiles from 20% and 39% loaded tablets cross ([1]; PEO MW 4×10^6 (FIG. 31)): about 50%
release kinetics exponent n [1, 3]: 0.78
release kinetics exponent n [1, 4]: 0.94
shape of release profile ([1]; PEO tablets (FIGS. 10, 12, 14)): slightly sigmoidal profile
constancy of release [1]: Constant release rates over the longest period of time
solubility [2]: 590 mg/L (≈ 2310 µM)

Cn1c(=O)c2[nH]cnc2n(C)c1=O [theophylline]
release exponent (n) ([1]; PEO MW 0.9×10^6 tablet (FIG. 2)): 0.99 (±0.024)
release exponent (n) ([1]; PEO MW 2×10^6 tablet (FIG. 2)): 0.80 (±0.004)
release exponent (n) ([1]; PEO MW 4×10^6 tablet (FIG. 2)): 0.83 (±0.019)
effect of pH of dissolution medium on release ([1]; PEO tablets (FIG. 3)): not significantly influenced by the pH variation
constancy of release [1]: least constant release; also recorded: constant or near constant release kinetics
effect of drug loading on release [1]: superimposed
solubility ([2]; in water): < 1.0%
